# According to patent US20230142565A1, “MICROBIOCIDAL QUINOLINE DIHYDRO-(THIAZINE)OXAZINE DERIVATIVES” (SYNGENTA CROP PROTECTION AG, priority 2020, published 2023):
# What was measured:
# [1] = test system: Botryotinia fuckeliana (Botrytis cinerea); experiment: Botryotinia fuckeliana (Botrytis cinerea) / liquid culture (gray mould); format: cell-based; details: inhibition of growth determined photometrically 3-4 days after application, compared to untreated control
# Protocol: Botryotinia fuckeliana (Botrytis cinerea)/Liquid Culture (Gray Mould) Conidia of the fungus from cryogenic storage are directly mixed into nutrient broth (Vogels broth). After placing a (DMSO) solution of test compound into a microtiter plate (96-well format), the nutrient broth containing the fungal spores is added. The test plates are incubated at 24° C. and the inhibition of growth is determined photometrically 3-4 days after application.
# [2] = test system: Monographella nivalis (Microdochium nivale); experiment: Monographella nivalis (Microdochium nivale) / liquid culture (foot rot cereals); format: cell-based; details: inhibition of growth determined photometrically 4-5 days after application, compared to untreated control
# [3] = test system: Mycosphaerella graminicola (Septoria tritici); experiment: Mycosphaerella graminicola (Septoria tritici) / liquid culture (Septoria blotch); format: cell-based; details: Zymoseptoria tritici, inhibition of growth determined photometrically 4-5 days after application, compared to untreated control
# Fusarium culmorum = experiment: microbe, parasite or virus in culture; format: cell-based; details: read-out: control of Fusarium culmorum
structure (smiles),measurement,setting,value
"CC1(C)CC(Cc2cncs2)N=C(c2cnc3c(F)c(F)ccc3c2)S1 (stereo not drawn) [E.16, 2-(7,8-difluoro-3-quinolyl)-6,6-dimethyl-4-(thiazol-5-ylmethyl)-4,5-dihydro-1,3-thiazine]",inhibition of growth at 20 ppm,[1],≥ 80%
same,inhibition of growth at 20 ppm,[2],≥ 80%
same,inhibition of growth at 6 ppm,[3],≥ 80%
"CC1(C)CC(Cc2nccs2)N=C(c2cnc3c(F)c(F)ccc3c2)O1 (stereo not drawn) [E.15, 2-(7,8-difluoro-3-quinolyl)-6,6-dimethyl-4-(thiazol-2-ylmethyl)-4,5-dihydro-1,3-oxazine]",inhibition of growth at 20 ppm,[1],≥ 80%
same,inhibition of growth at 20 ppm,[2],≥ 80%
same,inhibition of growth at 6 ppm,[3],≥ 80%
same,melting point,,105 to 113 °C
"CC1(C)CC(Cc2ccsc2)N=C(c2cnc3c(F)c(F)ccc3c2)[S+]1[O-] (stereo not drawn) [E.25, 2-(7,8-difluoro-3-quinolyl)-6,6-dimethyl-4-(3-thienylmethyl)-4,5-dihydro-1,3-thiazine 1-oxide]",inhibition of growth at 20 ppm,Fusarium culmorum,≥ 80%
same,inhibition of growth at 20 ppm,[2],≥ 80%
"CC1(C)CC(Cc2cscn2)N=C(c2cnc3c(F)c(F)ccc3c2)O1 (stereo not drawn) [E.13, 2-(7,8-difluoro-3-quinolyl)-6,6-dimethyl-4-(thiazol-4-ylmethyl)-4,5-dihydro-1,3-oxazine]",inhibition of growth at 20 ppm,[1],≥ 80%
same,inhibition of growth at 20 ppm,[2],≥ 80%
same,inhibition of growth at 6 ppm,[3],≥ 80%
"CC1(C)CC(Cc2ccccn2)N=C(c2cnc3c(F)c(F)ccc3c2)S1 (stereo not drawn) [E.01, 2-(7,8-difluoro-3-quinolyl)-6,6-dimethyl-4-(2-pyridylmethyl)-4,5-dihydro-1,3-thiazine]",inhibition of growth at 20 ppm,[1],≥ 80%
same,inhibition of growth at 20 ppm,Fusarium culmorum,≥ 80%
same,inhibition of growth at 20 ppm,[2],≥ 80%
"CC1(C)CC(Cc2ccsc2)N=C(c2cnc3c(F)cccc3c2)S1 (stereo not drawn) [E.23, 2-(8-fluoro-3-quinolyl)-6,6-dimethyl-4-(3-thienylmethyl)-4,5-dihydro-1,3-thiazine]",inhibition of growth at 20 ppm,[1],≥ 80%
same,inhibition of growth at 20 ppm,Fusarium culmorum,≥ 80%
same,inhibition of growth at 20 ppm,[2],≥ 80%
"CC1(C)CC(Cc2nccs2)N=C(c2cnc3c(F)c(F)ccc3c2)S1 (stereo not drawn) [E.14, 2-(7,8-difluoro-3-quinolyl)-6,6-dimethyl-4-(thiazol-2-ylmethyl)-4,5-dihydro-1,3-thiazine]",inhibition of growth at 20 ppm,[1],≥ 80%
same,inhibition of growth at 20 ppm,[2],≥ 80%
same,inhibition of growth at 6 ppm,[3],≥ 80%
"CC1(C)CC(Cn2cc(F)cn2)N=C(c2cnc3c(F)c(F)ccc3c2)S1 (stereo not drawn) [E.17, 2-(7,8-difluoro-3-quinolyl)-4-[(4-fluoropyrazol-1-yl)methyl]-6,6-dimethyl-4,5-dihydro-1,3-thiazine]",inhibition of growth at 20 ppm,[1],≥ 80%
same,inhibition of growth at 20 ppm,[2],≥ 80%
"CC1(C)CC(Cc2ccsc2)N=C(c2cnc3c(F)c(F)ccc3c2)S1 (stereo not drawn) [E.07, 2-(7,8-difluoro-3-quinoyl)-6,6-dimethyl-4-(3-thienylmethyl)-4,5-dihydro-1,3-thiazine]",inhibition of growth at 20 ppm,[1],≥ 80%
same,inhibition of growth at 20 ppm,Fusarium culmorum,≥ 80%
same,inhibition of growth at 20 ppm,[2],≥ 80%
"CC1(C)CC(Cc2cccnc2)N=C(c2cnc3c(F)cccc3c2)S1 (stereo not drawn) [E.20, 2-(8-fluoro-3-quinolyl)-6,6-dimethyl-4-(3-pyridylmethyl)-4,5-dihydro-1,3-thiazine]",inhibition of growth at 6 ppm,[3],≥ 80%
"CC1(C)CC(Cn2ccc(Cl)n2)N=C(c2cnc3c(F)c(F)ccc3c2)S1 (stereo not drawn) [E.11, 4-[(3-chloropyrazol-1-yl)methyl]-2-(7,8-difluoro-3-quinolyl)-6,6-dimethyl-4,5-dihydro-1,3-thiazine]",inhibition of growth at 20 ppm,[1],≥ 80%
same,inhibition of growth at 20 ppm,[2],≥ 80%
same,inhibition of growth at 6 ppm,[3],≥ 80%
"CC1(C)CC(Cc2cccc(F)n2)N=C(c2cnc3c(F)c(F)ccc3c2)S1 (stereo not drawn) [E.02, 2-(7,8-difluoro-3-quinolyl)-4-[(6-fluoro-2-pyridyl)methyl]-6,6-dimethyl-4,5-dihydro-1,3-thiazine]",inhibition of growth at 20 ppm,[1],≥ 80%
same,inhibition of growth at 20 ppm,Fusarium culmorum,≥ 80%
same,inhibition of growth at 20 ppm,[2],≥ 80%
same,inhibition of growth at 6 ppm,[3],≥ 80%
"CC1(C)CC(Cc2cncs2)N=C(c2cnc3c(F)c(F)ccc3c2)O1 (stereo not drawn) [E.19, 2-(7,8-difluoro-3-quinolyl)-6,6-dimethyl-4-(thiazol-5-ylmethyl)-4,5-dihydro-1,3-oxazine]",inhibition of growth at 20 ppm,[1],≥ 80%
same,inhibition of growth at 20 ppm,[2],≥ 80%
same,melting point,,122 to 127 °C
"CC1(C)CC(Cc2ccc(F)nc2)N=C(c2cnc3c(F)c(F)ccc3c2)S1 (stereo not drawn) [E.24, 2-(7,8-difluoro-3-quinolyl)-4-[(6-fluoro-3-pyridyl)methyl]-6,6-dimethyl-4,5-dihydro-1,3-thiazine]",inhibition of growth at 20 ppm,[1],≥ 80%
same,inhibition of growth at 20 ppm,Fusarium culmorum,≥ 80%
same,inhibition of growth at 20 ppm,[2],≥ 80%
"CC1(C)CC(Cc2ccc(Cl)nc2)N=C(c2cnc3c(F)c(F)ccc3c2)O1 (stereo not drawn) [E.09, 4-[(6-chloro-3-pyridyl)methyl]-2-(7,8-difluoro-3-quinolyl)-6,6-dimethyl-4,6-dihydro-1,3-oxazine]",inhibition of growth at 20 ppm,[1],≥ 80%
same,inhibition of growth at 20 ppm,[2],≥ 80%
same,inhibition of growth at 6 ppm,[3],≥ 80%
"CC1(C)CC(Cn2cc(C(F)(F)F)cn2)N=C(c2cnc3c(F)c(F)ccc3c2)S1 (stereo not drawn) [E.18, 2-(7,8-difluoro-3-quinolyl)-6,6-dimethyl-4-[[4-(trifluoromethyl)pyrazol-1-yl]methyl]-4,5-dihydro-1,3-thiazine]",inhibition of growth at 20 ppm,[2],≥ 80%
"CC1(C)CC(Cc2cccnc2)N=C(c2cnc3c(F)c(F)ccc3c2)S1 (stereo not drawn) [E.06, 2-(7,8-difluoro-3-quinolyl)-6,6-dimethyl-4-(3-pyridylmethyl)-4,5-dihydro-1,3-thiazine]",inhibition of growth at 20 ppm,[1],≥ 80%
same,inhibition of growth at 20 ppm,Fusarium culmorum,≥ 80%
same,inhibition of growth at 20 ppm,[2],≥ 80%
"CC1(C)CC(Cc2cccnc2)N=C(c2cnc3c(F)cccc3c2)O1 (stereo not drawn) [E.22, 2-(8-fluoro-3-quinolyl)-6,6-dimethyl-4-(3-pyridylmethyl)-4,5-dihydro-1,3-oxazine]",inhibition of growth at 20 ppm,[1],≥ 80%
same,inhibition of growth at 20 ppm,[2],≥ 80%
"CC1(C)CC(Cc2ccccn2)N=C(c2cnc3c(F)c(F)ccc3c2)O1 (stereo not drawn) [E.03, 2-(7,8-difluoro-3-quinolyl)-6,6-dimethyl-4-(2-pyridylmethyl)-4,5-dihydro-1,3-oxazine]",inhibition of growth at 20 ppm,[1],≥ 80%
same,inhibition of growth at 20 ppm,[2],≥ 80%
same,melting point,,120 to 123 °C
"CC1(C)CC(Cc2cccc(F)n2)N=C(c2cnc3c(F)c(F)ccc3c2)O1 (stereo not drawn) [E.04, 2-(7,8-difluoro-3-quinolyl)-4-[(6-fluoro-2-pyridyl)methyl]-6,6-dimethyl-4,5-dihydro-1,3-oxazine]",inhibition of growth at 20 ppm,[1],≥ 80%
same,inhibition of growth at 20 ppm,Fusarium culmorum,≥ 80%
same,inhibition of growth at 20 ppm,[2],≥ 80%
same,melting point,,129 to 131 °C
"CC1(C)CC(Cn2ccc(C(F)F)n2)N=C(c2cnc3c(F)c(F)ccc3c2)S1 (stereo not drawn) [E.12, 4-[[3-(difluoromethyl)pyrazol-1-yl]methyl]-2-(7,8-difluoro-3-quinolyl)-6,6-dimethyl-4,5-dihydro-1,3-thiazine]",inhibition of growth at 20 ppm,[1],≥ 80%
same,inhibition of growth at 20 ppm,[2],≥ 80%
same,inhibition of growth at 6 ppm,[3],≥ 80%
"CC1(C)CC(Cn2cc(Cl)cn2)N=C(c2cnc3c(F)c(F)ccc3c2)S1 (stereo not drawn) [E.10, 4-[(4-chloropyrazol-1-yl)methyl]-2-(7,8-difluoro-3-quinolyl)-6,6-dimethyl-4,5-dihydro-1,3-thiazine]",inhibition of growth at 20 ppm,[1],≥ 80%
same,inhibition of growth at 20 ppm,[2],≥ 80%
same,inhibition of growth at 6 ppm,[3],≥ 80%
"CC1(C)CC(Cc2ccncc2)N=C(c2cnc3c(F)c(F)ccc3c2)S1 (stereo not drawn) [E.26, 2-(7,8-difluoro-3-quinolyl)-6,6-dimethyl-4-(4-pyridylmethyl)-4,5-dihydro-1,3-thiazine]",inhibition of growth at 20 ppm,[1],≥ 80%
same,inhibition of growth at 20 ppm,[2],≥ 80%
"CC1(C)CC(Cc2cnccn2)N=C(c2cnc3c(F)c(F)ccc3c2)S1 (stereo not drawn) [E.05, 2-(7,8-difluoro-3-quinolyl)-6,6-dimethyl-4-(pyrazin-2-ylmethyl)-4,5-dihydro-1,3-thiazine]",inhibition of growth at 20 ppm,[1],≥ 80%
same,inhibition of growth at 20 ppm,[2],≥ 80%
